According to patent US9797016B2, “Methods and biomarkers for detection of bladder cancer” (OSLO UNIVERSITETSSYKEHUS HF, priority 2010, dated 2017):

System: bladder cancer cell lines (5637, J82, SCaBER, TCCSUP)
Experiment: Quantitative gene expression analyses (real-time PCR) after epigenetic drug treatment
Assay type: cell-based, human
Details: hypermethylated bladder cancer cell lines; 1 μM or 5 μM 5-aza-dC alone, 72 hours
Experimental: Cell lines representative of bladder (5637, J82, SCaBER, and TCCSUP), renal cell (786-0, ACHN, Caki-1, Caki-2) and prostate (22Rv1, DU 145, LNCaP, PC-3) cancer were obtained from the American Type Culture Collection (Manassas, Va.). All cell lines were cultured according to the manufacturer's specifications, with 10% fetal bovine serum (Gibco, Invitrogen, Carlsbad, Calif.) and antibiotics (100 units/mL penicillin G, and 100 μg/mL streptomycin, Gibco), in a humidified atmosphere of 5% CO2 at 37° C. […] RNA from four bladder cancer cell lines untreated, treated either with 1 μM or 5 μM of 5-aza-2′-deoxycytidine for 72 hours, and treated with the combination of 1 μM of 5-aza-dC (72 h) and 0.5 μM of trichostatin (added the last 12 h) was analyzed. […] GDF15 (Hs00171132_m1), HSPA2 (Hs00356607_g1), TMEFF2 (Hs01086901_m1), VIM (Hs00185584_m1), and endogenous controls assays GUSB (Hs99999908_m1) and HPRTJ (Hs99999909_m1), were amplified separately in 96-well plates following the recommended protocol (Applied Biosystems), and the real time quantitative gene expression was measured by the 7500 Real-Time PCR System (Applied Biosystems). All samples were analyzed in triplicate, and the mean value was used for data analysis. […]

## Nc1ncn([C@H]2C[C@H](O)[C@@H](CO)O2)c(=O)n1 [5-aza-dC, 5-aza-2′-deoxycytidine]
  transcript expression of GDF15, HSPA2, TMEFF2 and VIM after promoter demethylation: restored or increased
